# From PubChem BioAssay AID1963846 (Molecular Pharmacology Branch, DTP, NCI, 2024)
# Test system: 454973-116-R2-J3-PDC complex spheroid viability
# Test: Anticancer human tumor 454973-116-R2-J3-PDC patient-derived pancreatic carcinoma cell line growth inhibition [POLQ]
# Conditions: for IC50: curve of first compound; for viability, T/C: stronger effect = lower value
# Procedure, shortened: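 Patient-derived tumour cells were co-cultured with HUVEC and mesenchymal stem cells as multicellular spheroids at 37 °C. They were treated with POLQ inhibitors (novobiocin, ART-558, RP6685) alone or combined with other agents. Top concentrations were at or near clinical Cmax (otherwise 10 microM; SN-38 at 1 microM), decreasing in half-log steps.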
# 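Note: spheroids exposed to drugs for seven days before measurement.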
# 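Throughout, for viability, T/C: percent viability relative to DMSO vehicle control wells taken as 100%.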
compound,measurement,setting,value
CC(=O)O[C@H]1C(=O)[C@@]2(C)[C@H]([C@H](OC(=O)c3ccccc3)[C@]3(O)C[C@H](OC(=O)[C@H](O)[C@@H](NC(=O)c4ccccc4)c4ccccc4)C(C)=C1C3(C)C)[C@]1(OC(C)=O)CO[C@@H]1C[C@@H]2O + Cc1cccc(N(C)C(=O)C2C(O)CCN2c2nc(C)cc(C(F)(F)F)c2C#N)c1,IC50,second compound 0.0316 µM,< 9.49 nM
same,IC50,second compound 0.1 µM,< 9.49 nM
same,IC50,second compound 0.316 µM,< 9.49 nM
same,IC50,second compound 1 µM,< 9.49 nM
same,IC50,second compound 3.16 µM,< 9.49 nM
same,IC50,second compound 10 µM,< 9.49 nM
same,"viability, T/C","second compound 0.0316 µM, first compound 0.00949 µM",5.9%
same,"viability, T/C","second compound 0.0316 µM, first compound 0.03 µM",5.78%
same,"viability, T/C","second compound 0.0316 µM, first compound 0.0949 µM",4.79%
same,"viability, T/C","second compound 0.0316 µM, first compound 0.3 µM",5.44%
same,"viability, T/C","second compound 0.0316 µM, first compound 0.949 µM",6.64%
same,"viability, T/C","second compound 0.0316 µM, first compound 3 µM",4.88%
same,"viability, T/C","second compound 0.1 µM, first compound 0.00949 µM",7.63%
same,"viability, T/C","second compound 0.1 µM, first compound 0.03 µM",5.67%
same,"viability, T/C","second compound 0.1 µM, first compound 0.0949 µM",4.39%
same,"viability, T/C","second compound 0.1 µM, first compound 0.3 µM",5.55%
same,"viability, T/C","second compound 0.1 µM, first compound 0.949 µM",5.21%
same,"viability, T/C","second compound 0.1 µM, first compound 3 µM",5.24%
same,"viability, T/C","second compound 0.316 µM, first compound 0.00949 µM",7.72%
same,"viability, T/C","second compound 0.316 µM, first compound 0.03 µM",6.78%
same,"viability, T/C","second compound 0.316 µM, first compound 0.0949 µM",5.34%
same,"viability, T/C","second compound 0.316 µM, first compound 0.3 µM",4.54%
same,"viability, T/C","second compound 0.316 µM, first compound 0.949 µM",4.69%
same,"viability, T/C","second compound 0.316 µM, first compound 3 µM",5.5%
same,"viability, T/C","second compound 1 µM, first compound 0.00949 µM",7.85%
same,"viability, T/C","second compound 1 µM, first compound 0.03 µM",5.01%
same,"viability, T/C","second compound 1 µM, first compound 0.0949 µM",5.19%
same,"viability, T/C","second compound 1 µM, first compound 0.3 µM",5.01%
same,"viability, T/C","second compound 1 µM, first compound 0.949 µM",5.7%
same,"viability, T/C","second compound 1 µM, first compound 3 µM",4.36%
same,"viability, T/C","second compound 3.16 µM, first compound 0.00949 µM",6.74%
same,"viability, T/C","second compound 3.16 µM, first compound 0.03 µM",5.6%
same,"viability, T/C","second compound 3.16 µM, first compound 0.0949 µM",5.28%
same,"viability, T/C","second compound 3.16 µM, first compound 0.3 µM",4.99%
same,"viability, T/C","second compound 3.16 µM, first compound 0.949 µM",5.45%
same,"viability, T/C","second compound 3.16 µM, first compound 3 µM",4.91%
same,"viability, T/C","second compound 10 µM, first compound 0.00949 µM",6.83%
same,"viability, T/C","second compound 10 µM, first compound 0.03 µM",5.22%
same,"viability, T/C","second compound 10 µM, first compound 0.0949 µM",5.42%
same,"viability, T/C","second compound 10 µM, first compound 0.3 µM",5.06%
same,"viability, T/C","second compound 10 µM, first compound 0.949 µM",4.84%
same,"viability, T/C","second compound 10 µM, first compound 3 µM",5.41%
